Experimental data: article PMC9953095, “Design, Synthesis and Biological Evaluation of Quinazolinamine Derivatives as Breast Cancer Resistance Protein and P-Glycoprotein Inhibitors with Improved Metabolic Stability” (Biomolecules, 2023)
Values joined by “and” are separate entries in the source; they are usually repeats but may differ in a detail not shown here. Equal entries are not always repeated. Where two headings read alike, the source gives them in different places. Blank lines part the entries; values can stand above or below the molecule they belong to.

What was measured:
[1] = Metabolic stability with human liver microsomes; type: in vitro ADME; conditions: after 1 h of incubation with human liver microsomes, 37 °C, NADPH; further: tested at 200 µM
Description: Human liver microsome (20 mg/mL) 6.25 µL, nicotinamide adenine dinucleotide phosphate (NADPH) (0.75 µmol), MgCl2 (0.75 µmol), and the test compound (0.05 µmol) were added into a potassium phosphate buffer (pH 7.4) with 250 µL of final volume. The incubation was carried out aerobically at 37 °C. The mixture was pre-incubated without NADPH for 10 min at 37 °C and NADPH was added to start the reaction. At 1 h after the start of the reaction, an aliquot (50 µL) of the incubation mixture was taken from each incubation and mixed with 150 µL of ice-cold acetonitrile to terminate the reaction. Subsequently, the sample was centrifuged (12,000 rpm) at room temperature. The resulting supernatant was filtered and analyzed using HPLC (LC, Agilent 1200; column, HC-C18(2); column temperature, 25 °C; mobile phase, solvent A, methanol, solvent B, water; gradient elution, 30–99% solvent A; flow rate, 1 mL/min; UV signals were recorded at 254 nm).

[2] = system: P-gp-mediated multidrug-resistant cell line KB-C2; assay: cells; conditions: Homo sapiens, KB-C2, read-out: IC50 value of colchicine
Description: (§1) The human lung cancer cell line H460, and its MX-selected derivative BCRP-overexpressing cell line, H460/MX20, were used in this study. The KB-C2 cell line was selected by colchicine (Alfa Aesar, Haverhill, MA, USA) (2 μg/mL) with human cervical carcinoma cell line KB-3-1.
(§2) Cytotoxicity tests and reversal experiments were performed using the 3-(4,5-dimethylthiazol-2-yl)-2,5-diphenyltetrazolium bromide (MTT) colorimetric assay. Cells were seeded evenly into 96-well plates. […] To determine the MDR reversal efficacy of the quinazolinamine derivatives, an anticancer drug (mitoxantrone, colchicine, paclitaxel or cisplatin) was added into the designated wells after 2 h pre-incubation with a quinazolinamine derivative or a positive control inhibitor at non-toxic concentrations. After 72 h of drug incubation, the MTT reagent (4 mg/mL) was added into the wells, and then the plates were incubated for an additional 4 h. Subsequently, the supernatant was discarded and 100 µL of dimethyl sulfoxide (DMSO) was added to dissolve the formazan crystals. Cell viability was determined by measuring the absorbance by using an accuSkan™ GO UV/Vis Microplate Spectrophotometer (Fisher Sci., Fair Lawn, NJ, USA) at a wavelength of 570 nm.

[3] = system: BCRP localization in H460/MX20 cells; assay: Immunofluorescence assay of BCRP localization in H460/MX20 cells; type: cell-based, human; conditions: 5 μM for 24, 48, and 72 h, Figure 8A,C
Description: For immunofluorescence analysis, parental and drug-resistant cells were seeded in 24-well plates at 10,000–20,000 cells/well and incubated for 24 h. The cells were incubated with or without cyclopropyl quinazolinamine 22 or azide quinazolinamine 33 for 24 h, 48 h, and 72 h. Thereafter, cells were washed with PBS and fixed with 4% paraformaldehyde for 10 min at room temperature and then rinsed with PBS twice, followed by permeabilization with 1% Triton X-100 for 10 min at 4 °C. The cells were again washed twice with PBS, and then blocked with 6% BSA for 1 h at 37 °C. Fixed cells were incubated with monoclonal antibody against the BCRP protein (BXP 21) (Sigma-Aldrich, Inc., St. Louis, MO) (1:1000) or P-gp (F4) (Sigma-Aldrich, Inc., St. Louis, MO, USA) overnight at 4 °C, followed by two washes with PBS. The cells were then further incubated with Alexa flour 488 goat anti-mouse IgG (1:1000) (Abcam plc.) for 2 h at 37 °C. After the cells were washed twice with PBS, 4′,6-diamidino-2-phenylindole (DAPI) (2 µg/mL) was used for nuclear counterstaining. The immunofluorescence images were generated using a Nikon TE-2000S fluorescence microscope (Nikon Instruments Inc, Melville, NY, USA).

[4] = system: BCRP-overexpressing H460/MX20 cells; assay: [3H]-mitoxantrone accumulation assay, H460/MX20; type: cell-based, human
Description: (§3) To determine the accumulation of drugs on H460, H460/MX20, KB-3-1, and KB-C2 cells, the cells ([…] cells/well) were seeded in the 24-well plates and incubated at 37 °C with 5% CO2 [17]. After 12 h of incubation, a test compound (5 µM) was added and the plates were incubated at 37 °C for 2 h. Cells were then incubated with 0.01 µM [^3H]-MX or [^3H]-paclitaxel-containing medium for an additional 2 h at 37 °C, with or without a test compound. The cells were washed twice with ice-cold phosphate-buffered saline (PBS), trypsinized and lysed at the end of incubation. The radioactivity was measured using the Packard TRICARB1 1900A liquid scintillation analyzer.

[5] = system: BCRP protein in H460/MX20 cells; assay: Western blot of BCRP expression in H460/MX20 cells; type: cell-based, human; conditions: H460/MX20 total cell lysate; Figure 7
Description: Cells in T25 flask were washed with ice-cold PBS. Lysis buffer (100 µL) was added into T25 flask. Using a cell scraper, scrape adherent cells were scraped off the flask and the cell suspension was transferred into a microcentrifuge tube (1.5 mL). Cells were agitated for 20 min at 4 °C and cell lysate was centrifuged mixture at 4 °C for 20 min at 12,000 rpm. The supernatant (lysate) was used for the gel electrophoresis. Equal amounts of total cell lysates (20 µg protein) were resolved by sodium dodecyl sulfate polyacrylamide gel electrophoresis (SDS-PAGE) and electrophoretically transferred onto polyvinylidene fluoride (PVDF) membranes. After incubation in a blocking solution (5% milk) for 2 h at room temperature, the membranes were incubated overnight with primary monoclonal antibodies against GAPDH (GA1R) (Invitrogen, Carlsbad, CA, USA) at 1:1000 dilution of BCRP protein (BXP 21) (Sigma-Aldrich, Inc., St. Louis, MO, USA) (1:1000) or P-gp (F4) (Sigma-Aldrich, Inc., St. Louis, MO, USA) at 4 °C, and were further incubated with horseradish […] (HRP)-conjugated secondary antibody (Thermo Fisher Scientific Inc., Waltham, MA, USA) at 1:1000 dilution for 2 h at room temperature. The protein antibody complex was detected using an enhanced chemiluminescence detection system. The grayscale ratio was analyzed by ImageJ and normalized by the grayscale of the ABC protein divided by that of GAPDH.

H460 cells = assay: [3H]-mitoxantrone accumulation assay, H460; type: cell-based, human; conditions: parental H460 cells; compound 5 μM; Figure 6A
Description: as §3

BCRP ATPase = molecular target: T1, BCRP ATPase (Homo sapiens, UniProt Q9UNQ0); assay: Vanadate-sensitive BCRP ATPase assay; type: biochemical; conditions: membrane vesicles of High Five insect cells; Figure 10A,B
T1 construct: host or cells: High Five insect cells (membrane vesicles)
T1 sequence (Q9UNQ0 1-655): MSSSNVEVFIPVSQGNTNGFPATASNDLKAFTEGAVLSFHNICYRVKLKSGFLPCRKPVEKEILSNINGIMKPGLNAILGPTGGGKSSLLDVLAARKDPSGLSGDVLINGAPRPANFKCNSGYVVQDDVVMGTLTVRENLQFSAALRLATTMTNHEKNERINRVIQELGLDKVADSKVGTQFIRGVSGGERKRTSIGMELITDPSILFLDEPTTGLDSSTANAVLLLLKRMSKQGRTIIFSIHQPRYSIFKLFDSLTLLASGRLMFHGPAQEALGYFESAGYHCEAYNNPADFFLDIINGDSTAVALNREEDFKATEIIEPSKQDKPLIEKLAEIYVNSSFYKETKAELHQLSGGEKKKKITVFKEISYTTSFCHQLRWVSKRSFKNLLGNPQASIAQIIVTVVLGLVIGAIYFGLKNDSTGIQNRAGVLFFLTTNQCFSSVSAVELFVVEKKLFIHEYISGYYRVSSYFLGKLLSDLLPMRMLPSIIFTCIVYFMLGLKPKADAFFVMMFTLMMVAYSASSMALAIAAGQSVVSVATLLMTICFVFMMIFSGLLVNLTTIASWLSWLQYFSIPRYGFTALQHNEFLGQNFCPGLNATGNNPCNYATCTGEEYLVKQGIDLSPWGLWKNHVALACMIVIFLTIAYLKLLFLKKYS
Description: The vanadate (Vi)-sensitive ATPase activity of BCRP and P-gp in the membrane vesicles of High Five insect cells was measured as described previously. The results were presented as vanadate-sensitive ATPase activities by determining the difference in inorganic phosphate liberation measured in the presence and absence of sodium orthovanadate.

[6] = system: human lung cancer cell line H460; assay: MTT reversal assay with mitoxantrone, parental H460 cells; type: cell-based; conditions: NCI-H460, H460, mitoxantrone alone, read-out: IC50 ± SD of mitoxantrone
Description: as §1, §2

[7] = system: BCRP-mediated MDR cell line H460/MX20; assay: MTT reversal assay with mitoxantrone, BCRP-overexpressing H460/MX20 cells; type: cell-based; conditions: Homo sapiens, NCI-H460/MX20, H460/MX20, mitoxantrone alone, read-out: IC50 ± SD of mitoxantrone
Description: as §1, §2

SMILES: COc1ccc2c3c([nH]c2c1)[C@H](CC(C)C)N1C(=O)[C@H](CCC(=O)OC(C)(C)C)NC(=O)[C@@H]1C3 [Ko143, reference compound]
Metabolic Stability, % compound remaining [1]: 41% and 41 ± 7%

SMILES: COc1cc2c(c(OC)c1OC)-c1ccc(OC)c(=O)cc1[C@@H](NC(C)=O)CC2 [colchicine]
IC50 [2]: 7.34 µM

SMILES: [N-]=[N+]=Nc1ccc(Nc2nc(-c3ccncc3)nc3ccccc23)cc1 [Compound 33, N-(4-Azidophenyl)-2-(pyridin-4-yl)quinazolin-4-amine]
BCRP fluorescence on the membranes / intracellular localization of BCRP [3]: did not change the intracellular localization | accumulation of mitoxantrone after UV light activation ([4]; H460/MX20, compound followed by UV light activation): increased compared to the group without activation | accumulation of mitoxantrone ([4]; resistant H460/MX20 cells, compound 5 μM, Figure 6A): increased the accumulation | expression level of BCRP protein [5]: not altered | Metabolic Stability, % compound remaining [1]: 86 ± 11% | accumulation of mitoxantrone (H460 cells): slightly increase | effect on Vi-sensitive BCRP ATPase activity (ATP hydrolysis) (BCRP ATPase): significantly stimulated

SMILES: O=C1c2c(O)ccc(O)c2C(=O)c2c(NCCNCCO)ccc(NCCNCCO)c21 [Mitoxantrone]
IC50 ([6]; Table 1 series): 0.072 ± 0.009 µM | IC50 ([6]; Table 2 series): 0.154 ± 0.051 µM | IC50 ([7]; Table 1 series): 5.66 ± 0.29 µM | IC50 ([7]; Table 2 series): 6.5 ± 0.14 µM

Other lines, results leading:

Metabolic Stability, % compound remaining [1]: 75 ± 6%
SMILES: CC(C)c1ccc(Nc2nc(-c3ccncc3)nc3ccccc23)cc1 [Compound 23, N-(4-Isopropylphenyl)-2-(pyridin-4-yl)quinazolin-4-amine]

melting point: 212 to 214 °C | Metabolic Stability, % compound remaining [1]: 80 ± 5%
SMILES: CCCc1ccc(Nc2nc(-c3ccncc3)nc3ccccc23)cc1 [Compound 5, N-(4-Propylphenyl)-2-(pyridin-4-yl)quinazolin-4-amine]

melting point: 228 to 230 °C | Metabolic Stability, % compound remaining [1]: 87 ± 12%
SMILES: CCc1ccc(Nc2nc(-c3ccncc3)nc3ccccc23)cc1 [Compound 4, N-(4-Ethylphenyl)-2-(pyridin-4-yl)quinazolin-4-amine]

Metabolic Stability, % compound remaining [1]: 83 ± 1%
SMILES: COc1ccc(Nc2nc(-c3ccncc3)nc3ccccc23)cc1 [Compound 27, N-(4-Methoxyphenyl)-2-(pyridin-4-yl)quinazolin-4-amine]

Metabolic Stability, % compound remaining [1]: 91 ± 3%
SMILES: CCc1cccc(Nc2nc(-c3ccncc3)nc3ccccc23)c1 [Compound 24, N-(3-Ethylphenyl)-2-(pyridin-4-yl)quinazolin-4-amine]
